From patent publication EP4763839A1 (Pamplona Therapeutics (Shenzhen) Co., Ltd., priority 2023, dated 2025)
Read-outs that look alike come from different tables or passages of the source.

Biological target: T1, IRAK4 (Homo sapiens, UniProt Q9NWZ3)
T1 sequence (Q9NWZ3 1-460): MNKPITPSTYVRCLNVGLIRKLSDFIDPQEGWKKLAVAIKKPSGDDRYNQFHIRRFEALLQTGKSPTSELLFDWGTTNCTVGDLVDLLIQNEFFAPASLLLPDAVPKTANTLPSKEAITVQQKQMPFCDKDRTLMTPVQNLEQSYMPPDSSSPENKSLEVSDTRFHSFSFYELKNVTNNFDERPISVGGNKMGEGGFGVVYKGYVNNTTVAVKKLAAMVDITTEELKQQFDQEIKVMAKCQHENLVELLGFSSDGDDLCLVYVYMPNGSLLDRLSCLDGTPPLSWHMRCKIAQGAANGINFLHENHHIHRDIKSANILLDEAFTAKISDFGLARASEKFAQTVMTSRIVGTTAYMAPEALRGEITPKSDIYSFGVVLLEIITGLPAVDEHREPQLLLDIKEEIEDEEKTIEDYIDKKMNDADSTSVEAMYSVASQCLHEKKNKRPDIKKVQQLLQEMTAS
Assay: Assay for inhibitory effect of compound on IRAK4 kinase activity (KinEASE-STK S1 HTRF kit)
Type: biochemical
Protocol: Example 1: Kinase activity assay
Assay for inhibitory effect of compound on IRAK4 kinase activity
The inhibitory effect of the compound on IRAK4 kinase activity was measured using the KinEASE-STK S1 serine/threonine kinase kit (Cisbio). The specific method was as follows: the compound was dissolved in dimethyl sulfoxide and then subjected to 3-fold serial dilution in dimethyl sulfoxide, yielding final test compound concentrations in the reaction system ranging from 5,000 nM to 0.0254 nM. The kinase at a final concentration of 8 nM was added, followed by incubation at rt for 15 minutes. Subsequently, biotinylated STK1 substrate at a final concentration of 400 nM and adenosine triphosphate (ATP) at a final concentration of 80 µM were sequentially added, and the mixture was incubated at 37°C for 90 minutes. Then, the reaction was terminated by adding an anti-phosphoserine/threonine antibody conjugated with a europium cryptate and streptavidin-conjugated XL665 to the reaction system. After incubation at rt for 1 hour, the fluorescence intensity at emission wavelengths of 620 nm and 665 nm for each well was measured using an EnVision microplate reader (PerkinElmer) in HTRF mode. The ratio value was calculated using the formula: Ratio = (665 nm/620 nm)×10^4 The inhibition rate of the compound at each concentration was calculated using the formula: Inhibition% = [1-(Signal sample-Signal min)/(Signal max-Signal min)]×100. Subsequently, the dose-response curve was fitted by nonlinear curve fitting of log concentration versus inhibition rate using Fit Modela (205) in XLfit to give the IC50 value of the compound for inhibition of protein activity.

[1] = kinase 8 nM, ATP 80 µM, 37°C 90 minutes, read-out: IRAK4 HTRF IC50

| SMILES | IC50 [1] [nM] | IC50 [nM] |
| --- | --- | --- |
| NS(=O)(=O)c1nn(C2CCC2)cc1NC(=O)c1cnn2ccc(-c3ccn[nH]3)nc12 [Compound A293, N-(1-cyclobutyl-3-sulfamoyl-1H-pyrazol-4-yl)-5-(1H-pyrazol-5-yl)pyrazolo[1,5-a]pyrimidine-3-carboxamide] | < 100 |  |
| O=C(Nc1cn(C2CNC2)nc1C(=O)NC1CC1)c1cccc(-c2ccn[nH]2)n1 [Compound A253, N-(1-(Azetidin-3-yl)-3-(cyclopropylcarbamoyl)-1H-pyrazol-4-yl)-6-(1H-pyrazol-5-yl)picolinamide] | < 100 |  |
| O=C(Nc1cn(-c2ccccc2)nc1C(=O)NC1CC1)c1cccc(-c2ccn[nH]2)n1 [Compound A250, N-(3-(Cyclopropylcarbamoyl)-1-phenyl-1H-pyrazol-4-yl)-6-(1H-pyrazol-5-yl)picolinamide] | < 100 |  |
| CS(=N)(=O)c1cn(-c2ccccc2)nc1NC(=O)c1cccc(C(F)(F)F)n1 (stereo not shown) [Compound A60] |  | > 1000 |
| O=C(Nc1cn(C2CCC2)nc1C(F)F)c1cnn2ccc(-c3ccn[nH]3)nc12 [Compound A291, N-(1-cyclobutyl-3-(difluoromethyl)-1H-pyrazol-4-yl)-5-(1H-pyrazol-5-yl)pyrazolo[1,5-a]pyrimidine-3-carboxamide] | < 100 |  |
| CS(=N)(=O)c1nn(-c2ccccc2)cc1NC(=O)c1cccc(-c2cc[nH]n2)n1 (stereo not shown) [Compound A96, N-(3-(S-methylsulfonimidoyl)-1-phenyl-1H-pyrazol-4-yl)-6-(1H-pyrazol-3-yl)picolinamide] | 100 to 1000 |  |
| CC(=O)N1CCN(c2ccc(-n3cc(NC(=O)c4cccc(C(F)(F)F)n4)c(C(N)=O)n3)cc2)CC1 [Compound A27] | < 100 |  |
| NC(=O)c1cn(-c2ccccc2)nc1NC(=O)c1cccc(C(F)(F)F)n1 [Compound A4] | > 1000 |  |
| O=C(Nc1cn(C2CCNC2)nc1C(=O)NC1CC1)c1cccc(-c2ccn[nH]2)n1 (stereo not shown) [Compound A254, N-(3-(Cyclopropylcarbamoyl)-1-(pyrrolidin-3-yl)-1H-pyrazol-4-yl)-6-(1H-pyrazol-5-yl)picolinamide] | 100 to 1000 |  |
| NC(=O)c1nn(C2CCC(N)CC2)cc1NC(=O)c1cccc(C(F)(F)F)n1 (stereo not shown) [Compound A36] | 100 to 1000 |  |
| NC(=O)c1nn(-c2ccc(C(=O)O)c(F)c2)cc1NC(=O)c1cccc(C(F)(F)F)n1 [Compound A17] | 100 to 1000 |  |
| O=C(Nc1cn(C2CCNCC2)nc1C(=O)NC1CC1)c1cccc(-c2ccn[nH]2)n1 [Compound A256, N-(3-(Cyclopropylcarbamoyl)-1-(piperidin-4-yl)-1H-pyrazol-4-yl)-6-(1H-pyrazol-5-yl)picolinamide] | < 100 |  |
| NC(=O)c1nn(C2CCN(CCN3CCN(c4ccc5c(c4)C(=O)N(C4CCC(=O)NC4=O)C5=O)CC3)CC2)cc1NC(=O)c1cccc(C(F)(F)F)n1 (stereo not shown) [Compound A109] | 100 to 1000 |  |
| CC(C)(O)c1nn(C2CCC2)cc1NC(=O)c1ccn2ncc(-c3ccn[nH]3)c2n1 [Compound A281, N-(1-cyclobutyl-3-(2-hydroxypropan-2-yl)-1H-pyrazol-4-yl)-3-(1H-pyrazol-5-yl)pyrazolo[1,5-a]pyrimidine-5-carboxamide] | 100 to 1000 |  |
| O=C(Nc1cn(-c2cccnc2)nc1C(=O)NC1CC1)c1cccc(-c2ccn[nH]2)n1 [Compound A257, N-(3-(Cyclopropylcarbamoyl)-1-(pyridin-3-yl)-1H-pyrazol-4-yl)-6-(1H-pyrazol-5-yl)picolinamide] | < 100 |  |
| CC(F)(F)c1cccc(C(=O)Nc2cn(-c3ccccc3)nc2C(N)=O)n1 [Compound A264] | 100 to 1000 |  |
| NS(=O)(=O)c1nn(-c2ccccc2)cc1NC(=O)c1cccc(-c2c[nH]cn2)n1 [Compound A94, 6-(1H-imidazol-4-yl)-N-(1-phenyl-3-sulfamoyl-1H-pyrazol-4-yl)picolinamide] | < 100 |  |

| SMILES | IC50 [1] [nM] | IC50 [nM] |
| --- | --- | --- |
| COc1nn(C2CCC2)cc1NC(=O)c1cnn2ccc(-c3ccn[nH]3)nc12 [Compound A288, N-(1-cyclobutyl-3-methoxy-1H-pyrazol-4-yl)-5-(1H-pyrazol-5-yl)pyrazolo[1,5-a]pyrimidine-3-carboxamide] | < 100 |  |
| NC(=O)c1nn(-c2ccccc2)cc1NC(=O)c1cccc(-c2c[nH]cn2)n1 [Compound A90] | < 100 |  |
| CC(C)(O)c1nn(C2CC3(CCNCC3)C2)cc1NC(=O)c1ccc2cc(C#N)cnn12 [Compound A106, 3-Cyano-N-(3-(2-hydroxypropan-2-yl)-1-(7-azaspiro[3.5]nonan-2-yl)-1H-pyrazol-4-yl)pyrrolo[1,2-b]pyridazine-7-carboxamide] | < 100 |  |
| NC(=O)c1nn(-c2ccc(N3CCN(C(=O)c4ccccc4)CC3)cc2)cc1NC(=O)c1cccc(C(F)(F)F)n1 [Compound A28] | < 100 |  |
| N#Cc1cnn2c(C(=O)Nc3cn(-c4ccccc4)nc3C(F)F)ccc2c1 [Compound A233, 3-Cyano-N-(3-(difluoromethyl)-1-phenyl-1H-pyrazol-4-yl)pyrrolo[1,2-b]pyridazine-7-carboxamide] | < 100 |  |
| CC(C)NC(=O)c1nn(-c2ccccc2)cc1NC(=O)c1cccc(-c2ccn[nH]2)n1 [Compound A247, N-(3-(Isopropylcarbamoyl)-1-phenyl-1H-pyrazol-4-yl)-6-(1H-pyrazol-5-yl)picolinamide] | 100 to 1000 |  |
| NC(=O)c1nn(-c2ccc(O)cc2)cc1NC(=O)c1cccc(C(F)(F)F)n1 [Compound A6] | < 100 |  |
| O=C(Nc1cn(C2CCCCC2)nc1C(=O)NC1CC1)c1cccc(-c2ccn[nH]2)n1 [Compound A255, N-(1-Cyclohexyl-3-(cyclopropylcarbamoyl)-1H-pyrazol-4-yl)-6-(1H-pyrazol-5-yl)picolinamide] | 100 to 1000 |  |
| N#Cc1cnn2c(C(=O)Nc3cn(C4CCCCC4)nc3C(N)=O)ccc2c1 [Compound A235] | < 100 |  |
| NC(=O)c1nn(C2CC(N)C2)cc1NC(=O)c1cccc(C(F)(F)F)n1 (stereo not shown) [Compound A32] | < 100 |  |
| NC(=O)c1nn(-c2ccccc2)cc1NC(=O)c1cccc(-c2nc[nH]n2)n1 [Compound A457, N-(3-Carbamoyl-1-phenyl-1H-pyrazol-4-yl)-6-(1H-1,2,4-triazol-3-yl)picolinamide] | 100 to 1000 |  |
| NS(=O)(=O)c1nn(-c2ccccc2)cc1NC(=O)c1cccc(-c2cn[nH]c2)n1 [Compound A93] | < 100 |  |
| O=C(Nc1cn(-c2ccccc2)nc1OCC(F)(F)F)c1cccc(-c2ccn[nH]2)n1 [Compound A238, N-(1-Phenyl-3-(2,2,2-trifluoroethoxy)-1H-pyrazol-4-yl)-6-(1H-pyrazol-5-yl)picolinamide] | < 100 |  |
| CC(C)(O)c1nn(-c2ccccc2)cc1NC(=O)c1ccc2cc(C#N)cnn12 [Compound A232, 3-Cyano-N-(3-(2-hydroxypropan-2-yl)-1-phenyl-1H-pyrazol-4-yl)pyrrolo[1,2-b]pyridazine-7-carboxamide] | < 100 |  |
| COc1nn(C2CC3(CCNCC3)C2)cc1NC(=O)c1ccc2cc(C#N)cnn12 [Compound A230, 3-Cyano-N-(3-methoxy-1-(7-azaspiro[3.5]nonan-2-yl)-1H-pyrazol-4-yl)pyrrolo[1,2-b]pyridazine-7-carboxamide] | < 100 |  |
| NCc1ccc(-n2cc(NC(=O)c3cccc(C(F)(F)F)n3)c(C(N)=O)n2)cc1 [Compound A20] | < 100 |  |
| CC(C)n1nc(-c2ccccc2)nc1NC(=O)c1cccc(C(F)(F)F)n1 [Compound A108, N-(1-Isopropyl-3-phenyl-1H-1,2,4-triazol-5-yl)-6-(trifluoromethyl)picolinamide] | > 1000 |  |
